Results from patent US7557268B1, “Promoter for expression of a gene and response to infection or wounding” (priority 1999, dated 2009).
Where two headings read alike, the source gives them in different places.

How the values were obtained:
[1] = tested on: sugar beet promoter (pAG5947-trans, gus reporter) in transgenic tobacco PR1-52; assay: Promoter activity in leaf disks of transgenic tobacco PR1-52 with increasing plant age; type: cell-based, Nicotianum tabacum cv. SR1; details: for Separated + SA Specific GUS-Activity: leaf disks, 0.5 mM SA, 16 hours; for SA-Induction: vs fresh harvested control leaves
Method: […] SR1. The produced tobacco transformates are given identification PR1-52, PR1-54 and PR1-56. The transformate PR1-52 is multiplied and placed in a greenhouse. After the plant has achieved a height of approximately 20 cm, the activatability of the sugar beet promoter is analyzed depending upon the plant age. For this, 6 leaves of different ages on the plant were selected. The oldest, lowest leaf is given reference number 1 and the youngest, highest leaf is given the reference number 6. From the leaf half of one of each leaf there is stamped out, with the aid of a 14 mm cork punch, respectively 15 equally sized leaf disks. Respectively 5 leaf disks are incubated in 90 mm sized petri dishes in salicylic acid containing medium (LS-Medium without Sucrose, 5 mM MES pH 7.0, 0.5 mM SA), in PMG-elicitor containing medium (LS-Medium without Sucrose, 5 mM MES pH 7.0, 1 unit elicitor/ml) or in control medium (LS-Medium without Sucrose, 5 mM MES pH 7.0) for 16 hours at 24° C. On the next day, from each treated leaf half again 5 disks were stamped out for control purposes. The activity of the promoter in these disks as well as the disks incubated over night were measured according to Jefferson (1987) by a quantitative determination of the GUS-activity. After 16 days the corresponding test is repeated with the still intact leaf halves of the leaves 1-6. The tobacco plant is in the meantime grown and approximately 50-60 cm high. […] The promoter activity increases with increasing age of the transgenic plants. The wounding or as the case may be the elicitation or as the case may be salicylic acid application leads, in the reporter gene plant with high plant age, in all examined leaves to a higher reporter gene activity and therewith promoter activity. The plant age has however no influence on the relative induction of the promoter by wounding, elicitation or salicylic acid application.

[2] = tested on: SR1 non-transgenic starting line; assay: GUS activity in leaf disks of the non-transgenic tobacco starting line; type: cell-based
[3] = tested on: pAG516 promoter deletion (gus reporter) in PR4-19, PR4-21, PR4-22; assay: Promoter activity of deletion construct pAG516 in leaf disks of transgenic tobacco; type: cell-based; details: for Separated + SA Specific GUS Activity: leaf disks; for SA-Induction: vs fresh harvested control leaves
[4] = tested on: pAG2339 promoter deletion (gus reporter) in PR8-2, PR8-3, PR8-12; type: cell-based, tobacco; details: leaf disks, SA
[5] = tested on: pAG5947-trans promoter (gus reporter) in PR1-52, PR1-54, PR1-56; assay: Promoter activity of pAG5947-trans in leaf disks of transgenic tobacco; type: cell-based; details: for SA-Induction: vs fresh harvested control leaves
[6] = tested on: promoter activity (transcript amount) in leaves of sugar beets; assay: Activation of the promoter in sugar beet leaf disks by salicylic acid, RNA-blot with phosphoimager; type: cell-based; details: for transcript amount formed by the promoter activity: sugar beet leaf disks, 2.0 mM Salicyclic Acid
Method: In order to investigate the reaction of the promoter in sugar beet leaves to abiotic triggers such as wounds or, as the case may be, on the effect of resistance inductors such as salicylic acid, leaf disks (1 cm diameter) were punched out of 12 week old sugar beets with the aid of a cork stamp. Respectively 100 leaf disks were incubated in control medium (LS-Medium without Sucrose, 5 mM MES pH 7.0) or in salicylic acid containing medium (LS-Medium without Sucrose, 5 mM MES pH 7.0, 2.0 mM SA) for 16 hours at 24° C. Total cell RNA was isolated and an RNA-blot analysis was carried out as described above. The intensity of the hybridization as signal on the RNA-blot was quantified with the aid of a Phosphoimager. The promoter activity of the disks in the control set is not constant over the experiment (Table 8). Based on the 0 hour value, the promoter activity in the control set falls slightly after 3 hours, only to then increase over 6 hours and 11 hours until the 24 hour value. After 24 hours the transcript amount in the control set is approximately 3-fold higher than in the beginning of the experiment (0 h). This rise in the promoter activity is to be traced back to the wounding of the leaf tissue during the stamping out of the leaf disks. […] In the salicylic acid containing medium there is likewise a rise in the transcript amount depending upon the time (Table 8). […] Thus the transcript amount after 24 hours is approximately the 8.5-fold of the 0 h value. The cause of the higher activity of the promoter in the salicylic acid containing medium is the inducibility of the promoter by salicylic acid.

[7] = tested on: sugar beet promoter (gus reporter) in transgenic rape lines AG5947-t38, AG5947-t48; assay: Induction of the promoter in leaf disks of transgenic rape by salicylic acid and PMG-elicitor; type: cell-based; details: SA 0.5 mM, PMG-Elicitor 25 μg/ml
Source text: In order to examine the effect of salicylic acid and a purified PMG-elicitor from the cell wall of Phytophthora sojae (Valent, 1978) on the promoter activity, leaf disks with a diameter of 14 mm were stamped out of the leaves of greenhouse plants with the aid of a cork punch. The use of leaf disks facilitates the uptake of the salicylic acid or as the case may be the elicitor along the wound edge into the leaf tissue. Respectively 10 leaf disks from leaves of the transformed AG5947-t38 and […] were incubated in 90 mm sized petri dishes in salicylic acid containing medium (LS-medium without sucrose, 5 mM MES pH 7.0, 0.5 mM SA), in PMG-elicitor containing medium (LS-medium without sucrose, 5 mM MES pH 7.0, 25 μg elicitor/ml) or in control medium (LS-medium without sucrose, 5 mM MES pH 7.0) for 16 hours at 24° C. The activity of a promoter is described as in Jefferson (1987) measured by a quantitative determination of the GUS-activity.

SMILES: O=C(O)c1ccccc1O [SA, salicylic acid]
- Separated + SA Specific GUS-Activity ([1]; PR1-52, Leaf 1, t = 0 d): 314.92 pMol Mu × min^−1 × mg^−1
- SA-Induction ([1]; PR1-52, Leaf 1, t = 0 d): 5.3
- Separated + SA Specific GUS-Activity ([1]; PR1-52, Leaf 1, t = 16 d): 861.82 pMol Mu × min^−1 × mg^−1
- SA-Induction ([1]; PR1-52, Leaf 1, t = 16 d): 30.5
- Separated + SA Specific GUS-Activity ([1]; PR1-52, Leaf 2, t = 0 d): 205.53 pMol Mu × min^−1 × mg^−1
- SA-Induction ([1]; PR1-52, Leaf 2, t = 0 d): 13.6
- Separated + SA Specific GUS-Activity ([1]; PR1-52, Leaf 2, t = 16 d): 2358.18 pMol Mu × min^−1 × mg^−1
- SA-Induction ([1]; PR1-52, Leaf 2, t = 16 d): 30.7
- Separated + SA Specific GUS-Activity ([1]; PR1-52, Leaf 3, t = 0 d): 225.07 pMol Mu × min^−1 × mg^−1
- SA-Induction ([1]; PR1-52, Leaf 3, t = 0 d): 21.7
- Separated + SA Specific GUS-Activity ([1]; PR1-52, Leaf 3, t = 16 d): 555.62 pMol Mu × min^−1 × mg^−1
- SA-Induction ([1]; PR1-52, Leaf 3, t = 16 d): 8.8
- Separated + SA Specific GUS-Activity ([1]; PR1-52, Leaf 4, t = 0 d): 117.97 pMol Mu × min^−1 × mg^−1
- SA-Induction ([1]; PR1-52, Leaf 4, t = 0 d): 25.7
- Separated + SA Specific GUS-Activity ([1]; PR1-52, Leaf 4, t = 16 d): 1561.3 pMol Mu × min^−1 × mg^−1
- SA-Induction ([1]; PR1-52, Leaf 4, t = 16 d): 44.5
- Separated + SA Specific GUS-Activity ([1]; PR1-52, Leaf 5, t = 0 d): 140.37 pMol Mu × min^−1 × mg^−1
- SA-Induction ([1]; PR1-52, Leaf 5, t = 0 d): 29.4
- Separated + SA Specific GUS-Activity ([1]; PR1-52, Leaf 5, t = 16 d): 1220.71 pMol Mu × min^−1 × mg^−1
- SA-Induction ([1]; PR1-52, Leaf 5, t = 16 d): 9.0
- Separated + SA Specific GUS-Activity ([1]; PR1-52, Leaf 6, t = 0 d): 106.35 pMol Mu × min^−1 × mg^−1
- SA-Induction ([1]; PR1-52, Leaf 6, t = 0 d): 319.4
- Separated + SA Specific GUS-Activity ([1]; PR1-52, Leaf 6, t = 16 d): 1003.47 pMol Mu × min^−1 × mg^−1
- SA-Induction ([1]; PR1-52, Leaf 6, t = 16 d): 47.0
- Separated + SA Specific GUS Activity ([2]; leaf disks, SA): 6.2 pMol Mu × min^−1 × mg^−1
- SA-Induction ([2]; vs fresh harvested control leaves): 0.8
- Separated + SA Specific GUS Activity ([3]; PR4-19 (pAG516)): 16.6 pMol Mu × min^−1 × mg^−1
- SA-Induction ([3]; PR4-19 (pAG516)): 2.3
- Separated + SA Specific GUS Activity ([3]; PR4-21 (pAG516)): 21.3 pMol Mu × min^−1 × mg^−1
- SA-Induction ([3]; PR4-21 (pAG516)): 0.6
- Separated + SA Specific GUS Activity ([3]; PR4-22 (pAG516)): 19.3 pMol Mu × min^−1 × mg^−1
- SA-Induction ([3]; PR4-22 (pAG516)): 3.6
- SA-inducibility (in words) ([3]; plants transformed with the construct pAG516, leaf disks): small SA-inducibility
- Separated + SA Specific GUS Activity ([4]; PR8-2 (pAG2339)): 1.7 pMol Mu × min^−1 × mg^−1
- Separated + SA Specific GUS Activity ([4]; PR8-3 (pAG2339)): 0 pMol Mu × min^−1 × mg^−1
- Separated + SA Specific GUS Activity ([4]; PR8-12 (pAG2339)): 0 pMol Mu × min^−1 × mg^−1
- Separated + SA Specific GUS Activity ([5]; PR1-52 (pAG5947-trans), leaf disks): 218.93 pMol Mu × min^−1 × mg^−1
- SA-Induction ([5]; PR1-52 (pAG5947-trans)): 14.5
- Separated + SA Specific GUS Activity ([5]; PR1-54 (pAG5947-trans), leaf disks): 167.83 pMol Mu × min^−1 × mg^−1
- SA-Induction ([5]; PR1-54 (pAG5947-trans)): 8.0
- Separated + SA Specific GUS Activity ([5]; PR1-56 (pAG5947-trans), leaf disks): 661.19 pMol Mu × min^−1 × mg^−1
- SA-Induction ([5]; PR1-56 (pAG5947-trans)): 8.3
- change of reporter gene / promoter activity (in words) ([5]; lines PR1-52, PR1-54 and PR1-56 transformed with pAG5947-trans, leaf disks): significant induction
- transcript amount after 24 hours relative to the 0 h value ([6]; sugar beet leaf disks in salicylic acid containing medium (2.0 mM SA)): ~8.5 fold
- transcript amount formed by the promoter activity ([6]; Time 0 h): 81 PSL (photo stimulated luminescence)-units
- transcript amount formed by the promoter activity ([6]; Time 3 h): 107 PSL (photo stimulated luminescence)-units
- transcript amount formed by the promoter activity ([6]; Time 6 h): 284 PSL (photo stimulated luminescence)-units
- transcript amount formed by the promoter activity ([6]; Time 11 h): 513 PSL (photo stimulated luminescence)-units
- transcript amount formed by the promoter activity ([6]; Time 24 h): 688 PSL (photo stimulated luminescence)-units
- AG5947-t38 Specific GUS-Activities ([7]; AG5947-t38 leaf disks, 16 hours at 24° C.): 485.3 pMol Mu × min^−1 × mg^−1
- AG5947-t38 Induction ([7]; AG5947-t38 leaf disks, vs control medium): 19.8
- AG5947-t48 Specific GUS-Activity ([7]; AG5947-t48 leaf disks, 16 hours at 24° C.): 17.2 pMol Mu × min^−1 × mg^−1
- AG5947-t48 Induction ([7]; AG5947-t48 leaf disks, vs control medium): 9.2
